Laboratory results from patent US9834558B2, “Substituted bridged urea analogs as sirtuin modulators” (GLAXOSMITHKLINE LLC, priority 2013, dated 2017).
Like-named read-outs stand apart in the source and are kept apart here.

Biological target: T1, SIRT1 (Homo sapiens, UniProt Q96EB6)
T1 sequence (Q96EB6 1-747): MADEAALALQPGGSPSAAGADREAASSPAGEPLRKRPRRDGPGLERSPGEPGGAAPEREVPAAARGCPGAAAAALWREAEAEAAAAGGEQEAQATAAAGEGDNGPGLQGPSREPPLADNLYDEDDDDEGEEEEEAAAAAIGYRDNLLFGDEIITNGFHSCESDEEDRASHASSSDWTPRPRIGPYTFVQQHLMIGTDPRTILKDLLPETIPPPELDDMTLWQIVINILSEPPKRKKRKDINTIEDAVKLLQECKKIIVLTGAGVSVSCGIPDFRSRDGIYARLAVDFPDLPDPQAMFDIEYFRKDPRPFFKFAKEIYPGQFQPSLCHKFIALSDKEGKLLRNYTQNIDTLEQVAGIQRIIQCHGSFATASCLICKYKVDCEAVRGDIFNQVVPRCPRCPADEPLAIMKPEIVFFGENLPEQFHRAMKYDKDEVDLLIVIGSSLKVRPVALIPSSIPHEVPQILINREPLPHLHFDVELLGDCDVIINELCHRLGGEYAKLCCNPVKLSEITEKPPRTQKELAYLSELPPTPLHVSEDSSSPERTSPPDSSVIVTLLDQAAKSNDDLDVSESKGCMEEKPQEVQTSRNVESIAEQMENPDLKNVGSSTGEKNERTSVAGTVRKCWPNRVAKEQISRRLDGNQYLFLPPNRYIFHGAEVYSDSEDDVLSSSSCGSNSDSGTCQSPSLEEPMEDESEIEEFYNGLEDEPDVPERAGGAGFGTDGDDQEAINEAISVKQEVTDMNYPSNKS
Test: Trp mass spectrometry assay of SIRT1 activation
Format: biochemical
Conditions: for TRP Activity (EC1.5): EC1.5 = concentration that results in 150% activation of SIRT1; for Emax: read-out: TRP MAX RESP (percent maximum fold activation)
Method in brief: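 Activation read-out: mass-spec measurement of O-acetyl-ADP-ribose or deacetylated Trp peptide versus compound-free controls, giving EC1.5 and Percent Maximum Activation. Reactions ran 25 min at 25 °C, pH 7.5, with 120 μM βNAD+, 0.5 μM acetylated p53-derived peptide and 10 nM His-tagged SIRT1.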

[1] = Trp peptide assay, maximum activity relative to control (100%)
[2] = Trp mass spectrometry assay, EC1.5 = concentration of test compound that results in 150% activation of SIRT1
[3] = concentration giving 150% activation of SIRT1, Trp peptide substrate
[4] = Trp peptide substrate, concentration giving 150% activation of SIRT1

TRP Activity (EC1.5) (Trp peptide assay) | Emax [1] [%] | Compound | other results
A (A (EC1.5<1 μM)) | > 150 | CCc1cc(-c2ccc3c(n2)N(C(=O)Nc2cnccn2)[C@H]2CCN3C2)ccn1 [(9S)-5-(2-ethylpyridin-4-yl)-N-(pyrazin-2-yl)-1,6,8-triazatricyclo[7.2.1.0 {2,7}]dodeca-2(7),3,5-triene-8-carboxamide] | –
B (B (EC1.5 1-25 μM)) | > 150 | Cc1cc(-c2ccc3c(n2)N(C(=O)Nc2cccnn2)[C@H]2CCN3C2)ccn1 [(9S)-5-(2-methylpyridin-4-yl)-N-(pyridazin-3-yl)-1,6,8-triazatricyclo[7.2.1.0 {2,7}]dodeca-2(7),3,5-triene-8-carboxamide] | –
B (B (EC1.5 1-25 μM)) | > 150 | Cc1cc(-c2ccc3c(n2)N(C(=O)Nc2nccc4[nH]cnc24)[C@H]2CCN3C2)ccn1 [(9S)-N-{1H-imidazo[4,5-c]pyridin-4-yl}-5-(2-methylpyridin-4-yl)-1,6,8-triazatricyclo[7.2.1.0 {2,7}]dodeca-2,4,6-triene-8-carboxamide] | –
B (B (EC1.5 1-25 μM)) | – | Cc1cc(-c2ccc3c(n2)N(C(=O)Nc2ncnc4[nH]cnc24)[C@H]2CCN3C2)ccn1 [(9S)-5-(2-methylpyridin-4-yl)-N-(9H-purin-6-yl)-1,6,8-triazatricyclo[7.2.1.0^{2,7}]dodeca-2,4,6-triene-8-carboxamide] | Emax: > 150%
B (B (EC1.5 1-25 μM)) | > 150 | C[C@@H]1COCCN1c1ccc2c(n1)N(C(=O)Nc1cccnc1)[C@H]1CCN2C1 [(9S)-5-[(3R)-3-methylmorpholin-4-yl]-N-(pyridin-3-yl)-1,6,8-triazatricyclo[7.2.1.0 {2,7}]dodeca-2(7),3,5-triene-8-carboxamide] | –
A (A (EC1.5<1 μM)) | > 150 | COCC(NC(=O)c1ccc2c(n1)N(C(=O)Nc1ccccn1)[C@H]1CCN2C1)C(F)(F)F (stereo partly drawn) [(9S)-8-N-(pyridin-2-yl)-5-N-(1,1,1-trifluoro-3-methoxypropan-2-yl)-1,6,8-triazatricyclo[7.2.1.0^{2,7}]dodeca-2(7),3,5-triene-5,8-dicarboxamide] | –
B (B (EC1.5 1-25 μM)) | > 150 | Cc1ccc(-c2ccc3c(n2)N(C(=O)NCC2CC2)[C@H]2CCN3C2)cn1 [(9S)-N-(cyclopropylmethyl)-5-(6-methylpyridin-3-yl)-1,6,8-triazatricyclo[7.2.1.0^{2,7}]dodeca-2,4,6-triene-8-carboxamide] | –
B (B (EC1.5 1-25 μM)) | > 150 | CCc1ccc(-c2ccc3c(n2)N(C(=O)Nc2cnccn2)[C@H]2CCN3C2)cn1 [(9S)-5-(6-ethylpyridin-3-yl)-N-(pyrazin-2-yl)-1,6,8-triazatricyclo[7.2.1.0 {2,7}]dodeca-2(7),3,5-triene-8-carboxamide] | –
B (B (EC1.5 1-25 μM)) | > 150 | CN1CCN(c2ccc3c(n2)N(C(=O)Nc2cnccn2)[C@H]2CCN3C2)CC1 [(9S)-5-(4-methylpiperazin-1-yl)-N-(pyrazin-2-yl)-1,6,8-triazatricyclo[7.2.1.0 {2,7}]dodeca-2(7),3,5-triene-8-carboxamide] | –

The next lines start with the compound.

Compound | TRP Activity (EC1.5) (Trp peptide assay) | Emax [1] [%] | other results
O=C(Nc1cnccn1)N1c2nc(-c3ccc(C4CC4)nc3)ccc2N2CC[C@H]1C2 [(9S)-5-(6-cyclopropylpyridin-3-yl)-N-(pyrazin-2-yl)-1,6,8-triazatricyclo[7.2.1.0 {2,7}]dodeca-2(7),3,5-triene-8-carboxamide] | B (B (EC1.5 1-25 μM)) | > 150 | –
N#Cc1ccc(-c2ccc3c(n2)N(C(=O)Nc2cnccn2)[C@H]2CCN3C2)cn1 [(9S)-5-(6-cyanopyridin-3-yl)-N-(pyrazin-2-yl)-1,6,8-triazatricyclo[7.2.1.0 {2,7}]dodeca-2,4,6-triene-8-carboxamide] | C (C (EC1.5>25 μM)) | < 150 | –
Cc1cc(-c2ccc3c(n2)N(C(=O)Nc2ccc4c(c2)OCO4)[C@H]2CCN3C2)ccn1 [(9S)-N-(2H-1,3-benzodioxo1-5-yl)-5-(2-methylpyridin-4-yl)-1,6,8-triazatricyclo[7.2.1.0 {2,7}]dodeca-2(7),3,5-triene-8-carboxamide] | A (A (EC1.5<1 μM)) | > 150 | –
O=C(Nc1cccc(-c2cnco2)n1)N1c2nc(-c3cccc(C(F)(F)F)c3)ccc2N2CCC[C@H]1C2 [Example 590] | – | – | Tryp AVG EC1.5 (μM) [2]: A (A (EC1.5<1 μM))
Cn1nccc1-c1ccc2c(n1)N(C(=O)Nc1cnccn1)[C@H]1CCN2C1 [Example 414] | – | – | Tryp AVG EC1.5 (μM) (Trp mass spectrometry assay, concentration of test compound giving 150% activation of SIRT1): B (B (EC1.5 1-25 μM))
O=C(Nc1cnccn1)N1c2nc(-c3ccnc(CO)c3)ccc2N2CC[C@H]1C2 [(9S)-5-[2-(hydroxymethyl)pyridin-4-yl]-N-(pyrazin-2-yl)-1,6,8-triazatricyclo[7.2.1.0 {2,7}]dodeca-2(7),3,5-triene-8-carboxamide] | B (B (EC1.5 1-25 μM)) | > 150 | –
CS(=O)(=O)c1cccc(-c2ccc3c(n2)N(C(=O)Nc2cccc(-c4cnco4)n2)[C@H]2CCN3C2)c1 [Example 715] | – | – | Tryp AVG EC1.5 (μM) [3]: B (B (EC1.5 1-25 μM))
O=C(Nc1cccc(-c2ccoc2)n1)N1c2nc(-c3cccc(C(F)(F)F)c3)ccc2N2CC[C@H]1C2 [Example 654] | – | – | Tryp AVG EC1.5 (μM) [3]: A (A (EC1.5<1 μM))
O=C(Nc1cccnc1)N1c2nc(-c3cncc(Cl)c3)ccc2N2CC[C@H]1C2 [Example 526] | – | – | Tryp AVG EC1.5 (μM) [2]: A (A (EC1.5<1 μM))
O=C(Nc1cc(-c2cnco2)cc(-c2cnco2)c1)N1c2nc(-c3cccc(C(F)(F)F)c3)ccc2N2CC[C@H]1C2 [Example 743] | – | – | Tryp AVG EC1.5 (μM) [3]: A (A (EC1.5<1 μM))
COc1cc(-c2ccc3c(n2)N(C(=O)Nc2cnccn2)[C@H]2CCN3C2)cc(C)n1 [(9S)-5-(2-methoxy-6-methylpyridin-4-yl)-N-(pyrazin-2-yl)-1,6,8-triazatricyclo[7.2.1.0 {2,7}]dodeca-2(7),3,5-triene-8-carboxamide] | A (A (EC1.5<1 μM)) | > 150 | –
O=C(Nc1cc(-c2cnco2)ccn1)N1c2nc(-c3cccc(C(F)(F)F)c3)ccc2N2CCC[C@H]1C2 [Example 591] | – | – | Tryp AVG EC1.5 (μM) [2]: A (A (EC1.5<1 μM))
O=C(Nc1ccncn1)N1c2nc(C3CCCC(C(F)(F)F)C3)ccc2N2CC[C@H]1C2 (stereo partly shown) [Example 98] | – | – | Tryp AVG EC1.5 (μM) [4]: B (B (EC1.5 1-25 μM))
O=C(Nc1ccccc1CCC(F)(F)F)N1c2nc(Cl)ccc2N2CC[C@H]1C2 [(9S)-5-chloro-N-[2-(3,3,3-trifluoropropyl)phenyl]-1,6,8-triazatricyclo[7.2.1.0 {2,7}]dodeca-2(7),3,5-triene-8-carboxamide] | B (B (EC1.5 1-25 μM)) | > 150 | –
O=C(Nc1cncnc1)N1c2nc(-c3ccnc(C(F)(F)F)c3)ccc2N2CCC[C@H]1C2 [(9S)-N-(pyrimidin-5-yl)-5-[2-(trifluoromethyl)pyridin-4-yl]-1,6,8-triazatricyclo[7.3.1.0 {2,7}]trideca-2(7),3,5-triene-8-carboxamide] | A (A (EC1.5<1 μM)) | > 150 | –
Cc1nccn1CCCNC(=O)N1c2nc(-c3cccc(C(F)(F)F)c3)ccc2N2CC[C@H]1C2 [Example 632] | – | – | Tryp AVG EC1.5 (μM) [3]: C (C (EC1.5>25 μM))
Cc1cc(-c2ccc3c(n2)N(C(=O)Nc2ccc4c(c2)OCCCO4)[C@H]2CCN3C2)ccn1 [(9S)-N-(3,4-dihydro-2H-1,5-benzodioxepin-7-yl)-5-(2-methylpyridin-4-yl)-1,6,8-triazatricyclo[7.2.1.0 {2,7}]dodeca-2,4,6-triene-8-carboxamide] | A (A (EC1.5<1 μM)) | > 150 | –
O=C(Nc1ccccn1)N1c2nc(N3CCC[C@@H]3C(F)(F)F)ccc2N2CC[C@H]1C2 [(9S)-N-(pyridin-2-yl)-5-[(2R)-2-(trifluoromethyl)pyrrolidin-1-yl]-1,6,8-triazatricyclo[7.2.1.0 {2,7}]dodeca-2(7),3,5-triene-8-carboxamide] | A (A (EC1.5<1 μM)) | > 150 | –
Cn1nccc1-c1ccc2c(n1)N(C(=O)Nc1cccnc1)[C@H]1CCN2C1 [Example 524] | – | – | Tryp AVG EC1.5 (μM) [2]: B (B (EC1.5 1-25 μM))
Cc1cncc(NC(=O)N2c3nc(-c4cccc(Cl)c4)ccc3N3C[C@@H](O)[C@H]2C3)c1 [Example 677] | – | – | Tryp AVG EC1.5 (μM) [3]: B (B (EC1.5 1-25 μM))
CCCn1cc(-c2ccc3c(n2)N(C(=O)Nc2cccnc2)[C@H]2CCN3C2)cn1 [Example 487] | – | – | Tryp AVG EC1.5 (μM) [2]: B (B (EC1.5 1-25 μM))
O=C(Nc1ccncc1Cl)N1c2nc(-c3cccc(C(F)(F)F)c3)ccc2N2CC[C@H]1C2 [Example 96] | – | – | Tryp AVG EC1.5 (μM) [4]: B (B (EC1.5 1-25 μM))
